Structures are written as SMILES.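 96-well plates; 48 h exposure; 5 concentrations. Endpoints by linear interpolation between flanking doses. Not reached: highest tested concentration assigned. GI50 is the concentration that inhibits growth by half.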 Calls of active or inactive are those of the source. Cut-off read from the data, not from the text of the source: active = GI50 up to about 1.1 µM and inactive = higher.

We go through seven molecules from ChEMBL document CHEMBL1201862, “PubChem BioAssay data set” (2004).

Holding throughout (experiment): NCI-60 cell line screen, 48 h
The subject of assay [1] is SK-MEL-28.
The test system of assay [2] is HL-60.
In assay [3] the test system is UO-31.
The subject of assay [4] is HCT-15.
For assay [5], the system named is UACC-257.
Assay [6] deals with SR.
The test system of assay [7] is K562.
Assay [8] deals with RXF 393.
In assay [9] the test system is SF-295.
For assay [10], the system named is IGROV-1.
For assay [11], the system named is CCRF-CEM.
Assay [12] has as its system OVCAR-8.
In assay [13] the test system is MOLT-4.
Assay [14] concerns OVCAR-3.
Assay [15] concerns LOX IMVI.
Assay [16] relates to U-251.
For assay [17], the system named is SK-MEL-2.
Assay [18] deals with A549.
The test system of assay [19] is SNB-19.
Assay [20] has as its system SF-268.

Take `CCOC(=O)C(NCc1ccccc1)(NC(=O)c1ccccc1)C(F)(F)F` (stereo not given): the GI50 in assay [1] is > 100 µM (inactive); in assay [2] it was 29 µM (inactive); in assay [3] it was 46.6 µM (inactive); in assay [4], 78.3 µM; in [5] it was 90.4 µM (inactive); in assay [6], 32.1 µM (inactive). The GI50 was 60.1 µM (inactive) in assay [7]; 64.7 µM (inactive) in assay [8]; > 100 µM (inactive) in assay [9]; > 100 µM (inactive) in assay [10]; 24.2 µM (inactive) in assay [11]; 98.9 µM (inactive) in assay [12]. Also, the GI50 in assay [13] was 32.3 µM (inactive); in assay [14], 89.7 µM (inactive); in [15], 95.1 µM (inactive); in assay [16], > 100 µM (inactive); in assay [17], > 100 µM (inactive); in [18], > 100 µM (inactive). For the same molecule, the GI50 in assay [19] and in [20] was > 100 µM (inactive) each time.
Regarding `CC(=O)NC(CCCN(Cc1ccccc1)C(=O)N(CCCl)N=O)C(=O)NCc1ccccc1` (stereo not given), the GI50 was 78.3 µM (inactive) in assay [1]; 8.71 µM (inactive) in [2]; 43.4 µM (inactive) in [3]; more than 81.8 µM in assay [4]; 50 µM (inactive) in assay [5]; 3.69 µM (inactive) in assay [6]. The GI50 is 68.4 µM (inactive) in [7]; 21.8 µM (inactive) in assay [8]; 6.19 µM (inactive) in [9]; 44.4 µM (inactive) in assay [10]; 23 µM (inactive) in assay [11]; > 71.1 µM (inactive) in assay [12]. Further, the GI50 is 9.4 µM (inactive) in assay [13]; 98.6 µM (inactive) in [14]; 2.92 µM (inactive) in [15]; 10.9 µM (inactive) in assay [16]; > 66.5 µM (inactive) in assay [17]; 16.1 µM (inactive) in [18]. For the same molecule, the GI50 is 17.8 µM (inactive) in assay [19] and 3.89 µM (inactive) in assay [20].
For `COc1cccc(NC(=O)CC(=O)N2N=C(C)C(/N=N/c3ccc(S(=O)(=O)CCOS(=O)(=O)O)cc3)C2=O)c1` (stereo not given), the GI50 is 4.09 µM (inactive) in assay [1]; 1.66 µM (inactive) in assay [2]; 12.1 µM (inactive) in [3]; 3.42 µM in [4]; 8.93 µM (inactive) in [5]; 1.45 µM (inactive) in assay [6]. Also, the GI50 in [7] was 2.18 µM (inactive); in assay [8], 4.06 µM (inactive); in assay [9], 15.3 µM (inactive); in assay [10] it was 4.86 µM (inactive); in assay [11] it was 2.62 µM (inactive); in assay [12], 3.18 µM (inactive). For the same molecule, the GI50 is 2.26 µM (inactive) in assay [13]; 4.21 µM (inactive) in assay [14]; 1.5 µM (inactive) in assay [15]; 4.89 µM (inactive) in assay [16]; 2.04 µM (inactive) in [17]; 18.9 µM (inactive) in assay [18]. For the same molecule, the GI50 in [19] is 17 µM (inactive); in assay [20], 7.82 µM (inactive).
Regarding `O=[N+]([O-])/C=C/c1cc2ccccc2[nH]1`, the GI50 in [1] is 25.4 µM (inactive); in [2] it was 4.33 µM (inactive); in [3] it was 14.8 µM (inactive); in assay [4], 21.5 µM; in assay [5] it was 15.4 µM (inactive); in assay [6], 5.06 µM (inactive). Further, the GI50 in assay [7] was 13.8 µM (inactive); in assay [8] it was 13.3 µM (inactive); in [9], 19.5 µM (inactive); in assay [10], 12.2 µM (inactive); in assay [11], 2.99 µM (inactive); in assay [12] it was 21.6 µM (inactive). The GI50 is 15.2 µM (inactive) in [13]; 14.8 µM (inactive) in assay [14]; 14.2 µM (inactive) in [15]; 12.4 µM (inactive) in assay [16]; 19.3 µM (inactive) in assay [17]; 17.5 µM (inactive) in assay [18]. Further, the GI50 in assay [19] was 17.5 µM (inactive); in assay [20], 16.9 µM (inactive).
In the case of `C=CCOC(=O)/C(=C\c1ccc(OC)c(OC)c1)c1ccc(OC)c(OC)c1`, the GI50 is 33.1 µM (inactive) in [1]; 15.5 µM (inactive) in [2]; 20.7 µM (inactive) in [3]; more than 100 µM in assay [4]; 57.5 µM (inactive) in assay [5]; 22 µM (inactive) in [6]. Also, the GI50 in assay [7] was 57.8 µM (inactive); in assay [8], 27.9 µM (inactive); in [9] it was 52.1 µM (inactive); in [10], > 100 µM (inactive); in assay [11] it was 30.8 µM (inactive); in assay [12], > 100 µM (inactive). For the same molecule, the GI50 was 15.6 µM (inactive) in assay [13]; > 100 µM (inactive) in assay [14]; > 10 µM (inactive) in assay [15]; 52.4 µM (inactive) in assay [16]; 47.9 µM (inactive) in assay [17]; 61.7 µM (inactive) in assay [18]. For the same molecule, the figures for the GI50 in [19] and in [20] were 59 µM (inactive) and 52.7 µM (inactive), respectively.
In the case of `CC(=O)[C@]1(O)Cc2c(O)c3c(c(O)c2[C@@H](OC2CC(N)C(O)C(C)O2)C1)C(=O)c1c(OCc2ccccc2)cccc1C3=O` (stereo not given in full), the GI50 in assay [1] is 1.54 µM (inactive); in assay [2], 0.132 µM (active); in assay [3], 2.28 µM (inactive); in assay [4], 1.39 µM; in assay [5] it was 4.06 µM (inactive); in assay [6], 0.0933 µM (active). Besides, the GI50 is 0.738 µM (active) in assay [7]; 2.63 µM (inactive) in assay [8]; 1.23 µM (inactive) in assay [9]; 7.98 µM (inactive) in assay [10]; 0.202 µM (active) in [11]; 1.48 µM (inactive) in [12]. Further, the GI50 in assay [13] is 0.0741 µM (active); in assay [14] it was 2.06 µM (inactive); in assay [15], 0.604 µM (active); in assay [16] it was 1.07 µM (active); in [17], 17.4 µM (inactive); in [18], 0.75 µM (active). The GI50 in assay [19] is 1.5 µM (inactive); in [20], 1.75 µM (inactive).
With `C=CC1(C)/C(=N\O)C(C)(CC)C(=O)N1O` (stereo not given), the GI50 in assay [1] is > 100 µM (inactive); in assay [2], > 100 µM (inactive); in [3], > 100 µM (inactive); in [4], more than 100 µM; in [5] it was > 100 µM (inactive); in assay [6] it was > 100 µM (inactive). Also, the GI50 in assay [7], in assay [8], in assay [9], in assay [10], in [11] and in [12] was > 100 µM (inactive) in each case. In addition, the GI50 in [13], in assay [14], in assay [15], in assay [16], in [17] and in assay [18] was > 100 µM (inactive) in each case. In addition, the GI50 in assay [19] and in assay [20] was > 100 µM (inactive) each time.
